Experiment [1] has as its target Sodium-dependent noradrenaline transporter (Homo sapiens, UniProt P23975). As to the kind of experiment: ChEBML_1661745. How it is done: Inhibition of [3H]mazindol binding to recombinant human NET expressed in HEK293 cell membranes preincubated for 10 mins followed by radioligand addition measured after 90 mins by micro beta scintillation counting analysis
The target of experiment [2] is T1, Sodium-dependent serotonin transporter (Homo sapiens, UniProt P31645). As to the kind of experiment: Inhibition of [3H]mazindol binding to recombinant human SERT expressed in HEK293 cell membranes preincubated for 10 mins followed by radioligand addition measured after 90 mins by micro beta scintillation counting analysis.
T1 sequence (P31645 whole entry): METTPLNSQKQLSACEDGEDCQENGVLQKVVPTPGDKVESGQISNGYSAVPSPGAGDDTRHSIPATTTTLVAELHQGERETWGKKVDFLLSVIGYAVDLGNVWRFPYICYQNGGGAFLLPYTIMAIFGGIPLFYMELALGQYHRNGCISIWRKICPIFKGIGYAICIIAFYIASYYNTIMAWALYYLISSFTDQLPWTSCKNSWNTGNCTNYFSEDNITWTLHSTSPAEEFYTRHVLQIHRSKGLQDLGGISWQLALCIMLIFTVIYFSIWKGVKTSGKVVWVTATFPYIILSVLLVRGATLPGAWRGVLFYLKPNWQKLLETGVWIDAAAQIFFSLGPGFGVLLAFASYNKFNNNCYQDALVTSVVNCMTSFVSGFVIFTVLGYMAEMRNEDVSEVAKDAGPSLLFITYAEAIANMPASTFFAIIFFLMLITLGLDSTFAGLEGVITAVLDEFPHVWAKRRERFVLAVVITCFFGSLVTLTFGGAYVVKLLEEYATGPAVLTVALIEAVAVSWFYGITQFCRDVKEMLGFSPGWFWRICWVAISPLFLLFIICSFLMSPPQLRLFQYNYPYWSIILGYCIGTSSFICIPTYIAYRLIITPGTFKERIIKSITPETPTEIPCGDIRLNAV
In experiment [3] the target is T1, Sodium-dependent serotonin transporter. Description: Inhibition of [125I]RTI-55 binding to recombinant human SERT expressed in HEK293 cell membranes preincubated for 10 mins followed by radioligand addition measured after 90 mins by micro beta scintillation counting analysis.

Sodium-dependent noradrenaline transporter, sequence (P23975 whole entry): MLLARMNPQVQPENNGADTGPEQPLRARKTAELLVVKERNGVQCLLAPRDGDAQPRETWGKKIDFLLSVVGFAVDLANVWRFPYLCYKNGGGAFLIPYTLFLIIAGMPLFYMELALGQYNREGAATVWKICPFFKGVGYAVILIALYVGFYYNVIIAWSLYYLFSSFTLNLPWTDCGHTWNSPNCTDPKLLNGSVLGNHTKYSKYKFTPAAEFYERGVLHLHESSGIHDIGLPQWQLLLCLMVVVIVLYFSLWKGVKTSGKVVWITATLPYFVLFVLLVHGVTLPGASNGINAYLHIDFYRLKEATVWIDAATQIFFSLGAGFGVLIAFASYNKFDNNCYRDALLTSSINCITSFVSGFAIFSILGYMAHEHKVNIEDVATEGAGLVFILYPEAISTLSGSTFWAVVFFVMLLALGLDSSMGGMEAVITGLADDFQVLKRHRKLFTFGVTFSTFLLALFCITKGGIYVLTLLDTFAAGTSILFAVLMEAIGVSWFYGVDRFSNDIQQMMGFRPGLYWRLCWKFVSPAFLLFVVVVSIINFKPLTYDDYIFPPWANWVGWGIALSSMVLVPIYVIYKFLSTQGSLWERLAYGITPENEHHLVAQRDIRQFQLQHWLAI

Turning to `COC(=O)[C@H]1[C@@H](c2ccc([125I])cc2)CC2CC[C@H]1N2C`, the Ki in experiment [1] came out at 70 nM; in experiment [2], 1.3 nM.
`O[C@]1(c2ccc(Cl)cc2)c2ccccc2C2=NCCN21` [Mazanor]: the values for the Ki in experiment [2] and in experiment [3] were 45 nM and 136 nM, respectively.

Usually Ki stands for the equilibrium dissociation constant of an inhibitor or competing ligand from its target.

Source of the values: BindingDB's records for doi:10.1021/acs.jmedchem.7b00141 (National Institute of Diabetes and Digestive and Kidney …, 2017).
